Assay results from ChEMBL document CHEMBL5614415, “Recent advances and challenges of revolutionizing drug-resistant tuberculosis treatment” (Eur J Med Chem, 2024).

System: Mycobacterium tuberculosis variant bovis
Assay: Antimycobacterial activity against Mycobacterium bovis BCG ATCC 35734 assessed as bacterial growth inhibition incubated for 15 days by resazurin based reduction assay
Assay type: functional
Conditions: BCG ATCC 35734, 360 h, time 15 day

In the case of `COc1cc([C@](O)(CCN(C)C)[C@@H](c2cc3cc(Br)ccc3nc2OC)c2cccc(OC)c2F)cc(OC)n1` [TBAJ-587], the MIC50 is reported as < 6 ng/mL.
